The subject of assay [1] is MHC class I H-2Kb on IMG cells. The assay is described as follows: Surface MHC class I H-2Kb on IMG cells (AF6-88.5.5.3 flow cytometry). The conditions noted are these: 25 μg/mL. The format is cell-based, murine. The protocol: By using an MHC class I H-2K^b specific antibody, a relative comparison of the surface MHC class I was measured before and after BzFβ treatment of DC2.4 and IMG cells. […] Cells were centrifuged and washed using cold FACS buffer (DPBS with 5% FBS, 2 mM EDTA, 0.1% sodium azide). Cells were blocked with Fc block (bioLegend™; cat. no. 101320) for 10 min to 15 min to inhibit non-specific binding, followed by staining with fluorophore-conjugated antibodies; one set of cells was stained with the PE-labeled MHC/SIINFEKL specific antibody (clone 25-D1.16, Invitrogen™, Thermo Fisher Scientific Inc., Waltham, MA; cat. no. 12-5743-82), and the other set was stained with the PE-labeled MHC class I H-2Kb specific antibody (AF6-88.5.5.3,Invitrogen™, Thermo Fisher Scientific Inc., Waltham, MA; cat. no. 12-5958-82) PE-labeled MHC class I H-2kb specific (clone AF6-88.5.5.3; Invitrogen™, Thermo Fisher Scientific Inc., Waltham, MA; cat. no. 12-5958-82), for 30 min at 4° C. After washing, the cells were subjected to flow cytometric analysis with the Attune NxT Flow Cytometer (Invitrogen). Cells were gated based on live single-cell populations and positives were assessed using isotype controls and fluor-minus-one analysis when needed. Data were analyzed using the Attune NxT software or FlowJo versions 10.7 and 10.8.
Background: A flow cytometer gives signals particle by particle.

The target of assay [2] is T1, MHC class I/SIINFEKL complex on DC2.4 (Mus musculus, UniProt P01901).
T1 construct: DC2.4 are a C57Bl/6 lineage murine cell line and as such they express MHC class I H-2Kb and H-2Db; endogenous in cells; host or cells: DC2.4 (murine dendritic cell line, from Dr. Kenneth Rock)
T1 sequence (P01901 22-369): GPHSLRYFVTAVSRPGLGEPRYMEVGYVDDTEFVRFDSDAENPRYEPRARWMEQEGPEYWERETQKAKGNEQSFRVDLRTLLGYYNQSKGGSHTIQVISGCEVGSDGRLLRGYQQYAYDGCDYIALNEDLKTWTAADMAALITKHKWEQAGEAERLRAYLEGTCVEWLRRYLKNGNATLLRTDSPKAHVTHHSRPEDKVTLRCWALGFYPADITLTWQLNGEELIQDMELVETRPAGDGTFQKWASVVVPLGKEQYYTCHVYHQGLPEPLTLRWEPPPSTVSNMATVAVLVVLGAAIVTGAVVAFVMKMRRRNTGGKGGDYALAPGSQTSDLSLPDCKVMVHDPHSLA
T1 sequence (P01887 21-119 partner): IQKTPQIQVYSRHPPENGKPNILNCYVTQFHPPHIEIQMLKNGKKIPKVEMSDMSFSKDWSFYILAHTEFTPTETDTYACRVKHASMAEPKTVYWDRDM
The assay is described as follows: SIINFEKL binding to DC2.4, flow cytometry with 25-D1.16 antibody. In kind it is cell-based, murine. On the procedure: To detect binding of peptides to MHC class I H2Kb molecules on various murine cells, the cells were cultured as previously described and treated for various times as indicated in results and figure legends. Cells were centrifuged and washed using cold FACS buffer (DPBS with 5% FBS, 2 mM EDTA, 0.1% sodium azide). Cells were blocked using Fc block (bioLegend™; cat. no. 101320) for 10 min to 15 min to inhibit non-specific binding, followed by staining with fluorophore-conjugated antibody PE-labeled anti-MHC I/SIINFEKL (clone 25-D1.16; Invitrogen™, Thermo Fisher Scientific Inc., Waltham, MA; cat. no. 12-5743-82), for 30 min at 4° C. After washing, the cells were subjected to flow cytometric analysis with the Attune NxT Flow Cytometer (Invitrogen). Cells were gated based on live single-cell populations and positives were assessed using isotype controls and fluor-minus-one analysis when needed. Data were analyzed using the Attune NxT software or FlowJo versions 10.7 and 10.8.
To evaluate the potential of BzFβ to enhance peptide loading under conditions used to prepare DC vaccines, 1×10^6 DC2.4 cells were pretreated with 50 μg/mL BzFβ for 1 h in a total volume of 200 μL OptiMEM, then pulsed for 1 h with concentrations of SIINFEKL (1-10 μg/mL) often used for the in vitro production of DC vaccines. The cells were then stained for 30 min in 200 μL HBSS/2% FCS containing 0.4 μg PE-labeled MHC class I/SIINFEKL specific antibody, 25-D1.16.
By using an MHC class I H-2K^b specific antibody, a relative comparison of the surface MHC class I was measured before and after BzFβ treatment of DC2.4 and IMG cells. These cells were treated with 25 μg/mL BzFβ for 0-4 h. Cells were centrifuged and washed using cold FACS buffer (DPBS with 5% FBS, 2 mM EDTA, 0.1% sodium azide). […] Cells were gated based on live single-cell populations and positives were assessed using isotype controls and fluor-minus-one analysis when needed. Data were analyzed using the Attune NxT software or FlowJo versions 10.7 and 10.8.
Cultured cells were treated for various times as indicated in results and figure legends. […] Cells were gated based on live single-cell populations and positives were assessed using isotype controls and fluor-minus-one analysis when needed. Data were analyzed using the Attune NxT software or FlowJo versions 10.7 and 10.8.

With `O=C(O)/C=C/c1ccc2occc2c1` [BzFβ, (2E)-3-(1-benzofuran-5-yl)prop-2-enoic acid], the results for the “overall surface expression (MFI) of MHC class I” value in assay [1] (1-4 h) and in assay [1] (24 h) were “no significant effect” and “significant increase”, respectively. The “peptide binding under DC vaccine conditions” value in assay [2] (50 μg/mL BzFβ 1 h, then 1 h SIINFEKL 1-10 μg/mL) is “significant enhancement of peptide binding”. The “SIINFEKL peptide binding to DC2.4” value in assay [2] (25 or 50 μg/mL, up to 24 h) is on record as “significantly enhance peptide binding”. In addition, the “peptide detected per cell” value in assay [2] (2 h pretreatment 50 μg/mL BzFβ, then 1 h 1, 5 or 10 μg/mL SIINFEKL) is “significantly more peptide was detected per cell”. Also, in assay [2] (DC2.4, 25 μg/mL BzFβ 0-4 h), the “binding of SIINFEKL to surface MHC class I” value is listed as “able to enhance the binding of SIINFEKL”.

Source of the values: patent US20250381165A1, “Method of Use for Benzofuran Compounds” (Tampa Bay Research Institute, Inc., priority 2024, published 2025).
